In patent US3996229A, “1-[10,11-Dihydro-dibenzo[b,f]-thiepin-10-yl]-4-(alkynylalkyl)-piperazines” (Hoffmann-La Roche Inc., priority 1974, dated 1976):

Columns and labels:
rats [1] = test: Catalepsy Test; format: in vivo, rat; conditions: rats, intraperitoneally
Protocol: (§1) Representative dibenzo[b,f]thiepin derivatives of this invention were administered intraperitoneally to rats. The animals are considered to be cataleptic when the homolateral extremities remain in a crossed position for at least 10 seconds. The number of cataleptic animals is noted every 30 minutes for 6 hours.

rats [2] = test: "Pole Climbing" Test (neuroleptic properties; blocking of conditioned and unconditioned reaction); format: in vivo, rat; conditions: for Quotient ED10 (blocking of the unconditioned reaction)/ED50 (blocking of the conditioned reaction) / ED50: rats; for Quotient ED10 (blocking of the unconditioned reaction)/ED50 (blocking of the conditioned reaction): p.o., higher quotient = greater selectivity of the neuroleptic action; for ED50: Rattus norvegicus, po, pole climbing, conditioned impulse (acoustic signal)
Protocol: The neuroleptic properties of the foregoing derivatives were determined numerically on the basis of the following test, i.e., the "pole climbing" test.
This test provides information about the behavior reaction of rats. Rats are trained to avoid, by climbing up a vertical pole in the test chamber, an electrical impulse--unconditioned impulse--released via the wire-latticed floor some seconds after an acoustic signal--conditioned impulse--.
The blocking of the conditioned reaction is designated by the parameter ED50 (mg/kg p.o.) and the blocking of the unconditioned reaction is designated by the parameter ED10 (mg/kg p.o.).
The parameter ED50 --blocking of the conditioned reaction--provides a measure of the neuroleptic activity strength of the derivative under investigation since, with falling value, the neuroleptic activity strength increases.

mouse = test: Acute toxicity in the mouse; format: in vivo; conditions: acute toxicity, 24 hours
Protocol: (§2) The values relate to a duration of activity over a period of 24 hours: […]

Catalepsy Test = format: in vivo, rat; conditions: rat, in vivo, ip
Protocol: as §1

[3] = Acute toxicity in the mouse; format: in vivo; conditions: in vivo, po, period of 24 hours
Protocol: as §2

[4] = pole climbing test, chlorpromazine compared with Derivative A and Derivative B

SMILES | cataleptic side-effects (in words) (rats [1]) | neuroleptic activity (in words) (rats [2]; [4]) | quality (selectivity) of the neuroleptic activity (in words) (rats [2]; [4]) | Quotient ED10 (blocking of the unconditioned reaction)/ED50 (blocking of the conditioned reaction) (rats [2]) | toxicity (in words) (mouse) | TD50 at 6 h (Catalepsy Test) [mg/kg] | ED50 (rats [2]) [mg/kg] | LD50 at 24 h [3] [mg/kg]
CN(C)CCCN1c2ccccc2Sc2ccc(Cl)cc21 [Chlorpromazine, reference compound] | considerably greater cataleptic activity | somewhat stronger activity | clearly inferior | 2.5 | clearly inferior | – | – | –
C#CCN1CCN(C2Cc3ccc(OC)cc3Sc3ccc(SC)cc32)CC1.Cl.Cl (stereo not drawn) [Derivative A, 1-[10,11-Dihydro-3-methoxy-8-methylthio-dibenzo[b,f]thiepin-10-yl]-4-(2-propynyl)-piperazine dihydrochloride] | only very slight or no cataleptic side-effects | – | – | 9 | – | 88 | 17 | 900
C#CCN1CCN(C2Cc3ccc(OC)cc3Sc3ccc(Cl)cc32)CC1.CS(=O)(=O)O.CS(=O)(=O)O (stereo not drawn) [Derivative B, 1-[8-Chloro-10,11-dihydro-3-methoxy-dibenzo[b,f]thiepin-10-yl]-4-(2-propynyl)-piperazine dimethanesulfonate] | only very slight or no cataleptic side-effects | – | – | 4 | – | > 100 | 25 | 750
